From patent publication US5534533A, “Carboxylate derivatives exhibiting phospholipase A2 inhibitory activity” (Shionogi & Co., Ltd., priority 1993, dated 1996) come the findings set out here.

pIC50: −log10 of the molar value.

One assay has as its target T1, Human secretory PLA2 (Homo sapiens, UniProt P14555).
T1 sequence (P14555 21-144): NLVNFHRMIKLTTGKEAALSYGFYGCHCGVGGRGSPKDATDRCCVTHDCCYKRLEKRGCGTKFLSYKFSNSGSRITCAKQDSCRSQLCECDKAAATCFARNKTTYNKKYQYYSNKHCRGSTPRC
The assay can be described thus: Secretory PLA2 inhibitory activity (diheptanoyl thio PC substrate, absorbance at 405 nm). Type of assay: biochemical. Particulars: diheptanoyl thio PC 1 mM, Triton X100 0.3 mM, pH 7.3, CaCl2 10 mM, 30 minutes, read-out: s-PLA2 Inhibition IC50. In a few lines: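 Diheptanoyl thio-PC (1 mM) with Triton X100 (0.3 mM) and DTNB (125 μM) in Tris 25 mM pH 7.3, CaCl2 10 mM, KCl 100 mM, BSA 1.0 mg/ml. Absorbance change at 405 nm read at 30 min; percent inhibition corrected for no-enzyme blanks, IC50 from log-concentration plot.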

Assay [1] has as its target T2, intracellular PLA2 (cytosolic PLA2, cPLA2) (Homo sapiens, UniProt P47712).
T2 sequence (P47712 1-749): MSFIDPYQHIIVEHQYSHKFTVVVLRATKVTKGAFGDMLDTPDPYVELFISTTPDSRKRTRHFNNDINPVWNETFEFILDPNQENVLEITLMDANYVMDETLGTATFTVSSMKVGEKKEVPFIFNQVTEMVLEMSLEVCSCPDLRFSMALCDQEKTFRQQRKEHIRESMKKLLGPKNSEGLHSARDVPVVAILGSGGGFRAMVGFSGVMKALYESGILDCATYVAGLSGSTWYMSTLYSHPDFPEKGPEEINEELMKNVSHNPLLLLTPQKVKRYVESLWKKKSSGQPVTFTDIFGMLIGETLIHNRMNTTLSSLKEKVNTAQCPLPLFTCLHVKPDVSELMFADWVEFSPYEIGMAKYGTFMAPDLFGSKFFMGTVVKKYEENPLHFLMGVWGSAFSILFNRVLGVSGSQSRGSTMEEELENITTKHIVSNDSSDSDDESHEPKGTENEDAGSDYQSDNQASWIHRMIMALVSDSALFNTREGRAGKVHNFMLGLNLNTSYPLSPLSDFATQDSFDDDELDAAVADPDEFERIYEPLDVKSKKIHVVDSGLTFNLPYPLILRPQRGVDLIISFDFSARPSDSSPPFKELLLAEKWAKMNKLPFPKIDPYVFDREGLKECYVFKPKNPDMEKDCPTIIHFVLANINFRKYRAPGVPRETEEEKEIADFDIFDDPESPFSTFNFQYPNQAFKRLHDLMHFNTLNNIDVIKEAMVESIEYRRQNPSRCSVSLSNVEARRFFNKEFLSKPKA
The assay can be described thus: Intracellular PLA2 (cPLA2) inhibitory activity (14C-arachidonyl phosphatidylcholine substrate). Particulars: 2 μM radiolabelled phosphatidylcholine, 1 μM dioleoylglycerol, 1 mM CaCl2, pH 7.4; read-out: c-PLA2 Inhibition IC50. Format: biochemical. In a few lines: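 Sonicated vesicles carrying 2 μM 1-palmitoyl-2-[14C]arachidonyl-phosphatidylcholine with 1 μM dioleoylglycerol served as substrate. Buffer: 50 mM Hepes pH 7.4, 150 mM NaCl, 1 mM CaCl2, 2 mM DTT, 0.1 mg/ml BSA. IC50 values were derived.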

In a further assay the test system is adjuvant arthritis. The assay can be described thus: Adjuvant arthritis in rats (Mycobacterium butyricum), foot edema volume. Type of assay: in vivo, Crj/LEW male rat. Particulars: rat, 10 mg/kg P.O. daily, 17-18 days after adjuvant; *P < 0.05 (Examples 1, 69), **P < 0.01 (Examples 2, 23, 25) to vehicle control; Example 29 unmarked. As for the experimental part: Adjuvant arthritis was induced by subcutaneously administering a suspension of 0.5 mg of Mycobacterium butyricum (Difco) in 0.05 ml of liquid paraffin to the pad of left foot of Crj/LEW male rat of 7-8 weeks age weighing 150-170 g. After administering the adjuvant, the volume of edema of both feet was daily measured by a plethysmometer. The adjuvant had been administered, and since the following day, a suspension of the test compound in 0.6% arabic gum was orally administered every day, and 17-18 days after administering the adjuvant, the volume of edema of the foot and that of foot to which no adjuvant had been administered were compared with each other. Volume of the edema in control group was defined as 100%, which value was obtained by subtracting the volume of foot of normal rat (1.2 ml) from the volume measured, and inhibitory percent obtained by using the inhibitor was defined as inhibitory rate. Using the inhibitory rate, effectiveness was determined by Student's-t assay.

Broadly, the pIC50 is the IC50 on a negative log10 scale, so that one unit is a factor of ten. Turning to `COc1c(C)c(OC(=O)c2c(C)c(C)c(OCCCOc3ccc(F)cc3)c(C)c2OC)c(C)c(C)c1C(=O)O` [Example 2, 4-[4-[3-(4-Fluorophenoxy)propyloxy]-2-methoxy-3,5,6-trimethylphenylcarboxy]-2-methoxy-3,5,6-trimethylbenzoic acid], the figures for the pIC50 (on Human secretory PLA2; in assay [1]) were 4.74 and 5.05, respectively. Also, the “Inhibition % (To Nontreated Foot), edema volume” value (“Inhibition %” below) in the assay on adjuvant arthritis came to 52.3%.
In the case of `COc1c(C)c(OC(=O)c2c(C)c(C)c(OCCCOc3ccc(Cl)cc3)c(C)c2OC)c(C)c(C)c1C(=O)O` [Example 23, 4-{4-[3-(4-Chlorophenoxy)propoxy]-2-methoxy-3,5,6-trimethylbenzoyloxy}-2-methoxy-3,5,6-trimethylbenzoic Acid], the pIC50 at Human secretory PLA2 was 5.03; in assay [1] it was 5.40. The “Inhibition %” value in the assay with adjuvant arthritis is given as 66.0%.
Take `COc1c(C)c(OC(=O)c2c(C)c(C)c(OCCCOc3ccc(C(F)(F)F)cc3)c(C)c2OC)c(C)c(C)c1C(=O)O` [Example 1, 4-[4-[3-(4-Trifluoromethylphenoxy)propyloxy]-2-methoxy-3,5,6-trimethylphenylcarboxy]-2-methoxy-3,5,6-trimethylbenzoic acid]: the negative-log IC50 (pIC50) at Human secretory PLA2 is 4.68; in assay [1], 4.70. The “Inhibition %” value with adjuvant arthritis is 43.4%.
In the same order, the values of `COc1c(C)c(OC(=O)c2c(C)c(C)c(OCCCOc3ccc(C)cc3)c(C)c2OC)c(C)c(C)c1C(=O)O` [Example 29, 4-{4-[3-(4-Methylphenoxy)propoxy]-2-methoxy-3,5,6-trimethylbenzoyloxy}-2-methoxy-3,5,6-trimethylbenzoic Acid] are 4.92, 5.07 and 33.1%.
`COc1c(C)c(OC(=O)c2c(C)c(C)c(OCCCOc3ccc(Br)cc3)c(C)c2OC)c(C)c(C)c1C(=O)O` [Example 25, 4-{4-[3-(4-Bromophenoxy)propoxy]-2-methoxy-3,5,6-trimethylbenzoyloxy}-2-methoxy-3,5,6-trimethylbenzoic Acid]: the pIC50 on Human secretory PLA2 was 5.34; in assay [1], 4.89. Besides, in the assay on adjuvant arthritis, the “Inhibition %” value is listed as 66.0%.
As for `COc1c(C)c(OC(=O)c2c(C)c(C)c(OCCC=C(c3ccccc3)c3ccccc3)c(C)c2OC)c(C)c(C)c1C(=O)O` [Example 48, 4-[4-(4,4-Diphenylbut-3-enyloxy)-2-methoxy-3,5,6-trimethylbenzoyloxy]-2-methoxy-3,5,6-trimethylbenzoic Acid], the negative logarithm of the IC50 (pIC50) is 4.92 at Human secretory PLA2 and 5.52 in assay [1].
For `COc1c(C)c(OC(=O)c2c(C)c(C)c(OCCCN3CCN(C(c4ccc(F)cc4)c4ccc(F)cc4)CC3)c(C)c2OC)c(C)c(C)c1C(=O)O` [Example 68, 4-{4-[3-(Di-4-Fluorophenylmethylpiperazin-1-yl)-propoxy]-2-methoxy-3,5,6-trimethylbenzoyloxy}-2-methoxy-3,5,6-trimethylbenzoic Acid], the pIC50 was 4.77 on Human secretory PLA2 and 4.96 in assay [1].
For `COc1c(C)c(OC(=O)c2c(C)c(C)c(OCCCOc3ccccc3F)c(C)c2OC)c(C)c(C)c1C(=O)O` [Example 33, 4-{4-[3-(2-Fluorophenoxy)propoxy]-2-methoxy-3,5,6-trimethylbenzoyloxy}-2-methoxy-3,5,6-trimethylbenzoic Acid], in that order: 4.59 and 4.92.
Consider `COc1c(C)c(OC(=O)c2c(C)c(C)c(OCCCN3CCN(c4ccc(F)cc4)CC3)c(C)c2OC)c(C)c(C)c1C(=O)O` [Example 69, 4-{4-[3-(4-(4-Fluorophenyl)piperazin-1-yl)propoxy]-2-methoxy-3,5,6-trimethylbenzoyloxy}-2-methoxy-3,5,6-trimethylbenzoic Acid], for which the pIC50 at Human secretory PLA2 was 4.92; in assay [1] it was 4.44. Besides, the “Inhibition %” value in the assay on adjuvant arthritis worked out at 24.6%.
On to `COc1c(C)c(OC(=O)c2c(C)c(C)c(OCCCOc3ccc(F)cc3)c(C)c2OC)c(C)c(C)c1C(N)=O` [Example 44, 4-{4-[3-(4-Fluorophenoxy)propoxy]-2-methoxy-3,5,6-trimethylbenzoyloxy}-2-methoxy-3,5,6-trimethylbenzamide], for which the figures for the pIC50 (at Human secretory PLA2; in assay [1]) were 6.03 and 5.03, respectively.
